The values below come from patent US4657856A (priority 1980, dated 1987).

For experiment [1], the system named is glutathione peroxidase produced from Mucor hiemalis YR-0929. The experiment in a line: inhibition of glutathione peroxidase enzymatic action. It is filed as biochemical. As to conditions: 25° C., pH 7.0. As for the experimental part:
When reacted at 25° C. and pH 7.0, this enzymatic action is inhibited by the following substances.

Experiment [2] has the same test system. The experiment in a line: substrate specificity of glutathione peroxidase (NADPH/glutathione reductase coupled assay, 340 nm). As to conditions: hydroperoxide as substrate of the enzyme; cumene hydroperoxide = 100. It is filed as biochemical. As to the method: The reaction is illustrated by the following formulae (1) and (2): [drawing 1] wherein GSSG represents oxidized glutathione, NADPH represents reduced nicotinamide adenine dinucleotide phosphate […] and NADP represents nicotinamide adenine dinucleotide phosphate.
(1) Substrate: 30 mM Cumene hydroperoxide aqueous solution: 0.2 ml
(2) Buffer: 100 mM Phosphate buffer (pH 7.0) containing 4 mM EDTA: 1.5 ml
(3) Reduced glutathione: 10 mM Aqueous solution: 0.3 ml
(4) Sodium azide: 10 mM Aqueous solution: 0.3 ml
(5) NADPH*: 1.6 mM Aqueous solution: 0.3 ml
(6) Glutathione reductase solution: Prepared by diluting with 100 mM phosphate buffer (pH 7.0) to 1 u/ml: 0.3 ml
(7) Enzyme solution: 0.1 ml
This enzyme acts upon cumene hydroperoxide, t-butyl hydroperoxide, linolenic acid hydroperoxide, etc.

The mark [3] stands for this setting: inhibitor concentration 10^-3 M.
Where [4] appears, read: inhibitor concentration 10^-4 M.

For `NC(=O)CI` [Iodoacetamide], the entries for the “Percent Inhibition (%)” value in experiment [1] (setting [3]) and in experiment [1] (setting [4]) were 16% and 1%, respectively.

As to `CCN1C(=O)C=CC1=O` [N--Ethylmaleimide], the “Percent Inhibition (%)” value in experiment [1] (setting [3]) was 93%; in experiment [1] (setting [4]), 3%.

On to `CC(C)(C)OO` [t-Butyl hydroperoxide], for which the “Relative Activity (%)” value in experiment [2] is recorded as 175%.

On to `O=C(O)c1cc[c]([Hg][Cl])cc1` [PCMB, Parachloromercurybenzoate], for which the “Percent Inhibition (%)” value in experiment [1] (setting [3]) came out at 99%; in experiment [1] (setting [4]), 75%.

As to `CC(C)(OO)c1ccccc1` [Cumene hydroperoxide], the “Relative Activity (%)” value in experiment [2] came to 100%.

Turning to Linolenic acid hydroperoxide, the “Relative Activity (%)” value in experiment [2] was found to be 98%.
